Results on 21 molecules are retold here after patent publication US20260297080A1, “BICYCLIC COMPOUNDS AS CDK INHIBITORS” (BeOne Medicines I GmbH, priority 2022, published 2026).

One experiment addresses CDK2/Cyclin E1 (Homo sapiens, UniProt P24941). The experiment is described as follows: CDK2/Cyclin E1 Biochemical Assay (TR-FRET), 0.060 mM ATP. To be noted: 0.15 μM Rb (Ser780)-biotin substrate, pH7.0, 60 min preincubation, 120 min reaction, room temperature. The method in brief:
(§1)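 Inhibitor concentrations up to 10 μM were preincubated with each cyclin–kinase complex for 60 minutes before ATP and biotinylated Rb (Ser780) substrate (0.15 μM) were added. After 120 minutes at room temperature, phosphorylation was quantified by HTRF and IC50 values were fitted with a four-parameter logistic equation.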
(In general: Time-resolved FRET reads energy transfer from a long-lived donor to a nearby acceptor.)

A further experiment deals with CDK1/Cyclin B1 (Homo sapiens, UniProt P06493). The experiment is described as follows: CDK1/Cyclin B1 Biochemical Assay (TR-FRET), 0.015 mM ATP. The conditions noted are these: 0.15 μM Rb (Ser780)-biotin substrate, pH7.0, 60 min preincubation, 120 min reaction, room temperature. The method in brief: as §1
Sequence of CDK1/Cyclin B1 (P06493 whole entry): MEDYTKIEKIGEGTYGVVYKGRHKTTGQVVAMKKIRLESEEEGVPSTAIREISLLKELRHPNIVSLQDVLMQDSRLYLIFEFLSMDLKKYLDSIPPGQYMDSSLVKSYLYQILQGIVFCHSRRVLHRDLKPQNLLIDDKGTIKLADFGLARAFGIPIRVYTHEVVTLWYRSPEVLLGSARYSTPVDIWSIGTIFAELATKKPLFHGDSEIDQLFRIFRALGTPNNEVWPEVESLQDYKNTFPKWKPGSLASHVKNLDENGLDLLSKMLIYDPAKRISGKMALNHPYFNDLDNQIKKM
Sequence of CDK1/Cyclin B1 (P14635 whole entry partner): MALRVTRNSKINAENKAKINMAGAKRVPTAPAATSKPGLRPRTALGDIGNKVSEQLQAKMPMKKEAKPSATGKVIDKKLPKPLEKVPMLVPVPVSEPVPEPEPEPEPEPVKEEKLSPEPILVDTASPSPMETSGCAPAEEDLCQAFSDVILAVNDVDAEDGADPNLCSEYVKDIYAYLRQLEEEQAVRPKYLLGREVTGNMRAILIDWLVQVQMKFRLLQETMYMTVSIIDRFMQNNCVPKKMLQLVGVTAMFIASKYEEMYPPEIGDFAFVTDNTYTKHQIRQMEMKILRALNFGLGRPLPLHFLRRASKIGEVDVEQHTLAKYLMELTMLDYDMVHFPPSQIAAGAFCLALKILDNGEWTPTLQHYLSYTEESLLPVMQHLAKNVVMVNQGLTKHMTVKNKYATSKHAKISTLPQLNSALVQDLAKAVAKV

One may read the IC50 as the concentration needed to halve the response being measured. A higher IC50 goes with a need for much substance. In the case of `CC(NC(=O)O[C@H]1CC[C@@H](c2cc(Nc3ccc4c(c3F)CN(C3CC3)S4(=O)=O)n[nH]2)C1)C1COC1` (relative stereo) [Example 357, cis-3-(3-((2-cyclopropyl-4-fluoro-1,1-dioxido-2,3-dihydrobenzo[d]isothiazol-5-yl)amino)-1H-pyrazol-5-yl)cyclopentyl(1-(oxetan-3-yl)ethyl)carbamate], the IC50 on CDK2/Cyclin E1 amounted to 0.023 µM; at CDK1/Cyclin B1, 0.817 µM.

With `CC1(NC(=O)O[C@H]2CC[C@@H](c3cc(Nc4ccc5c(c4F)CN(C4CC4)S5(=O)=O)n[nH]3)C2)CCOC1` (relative stereo) [Example 358, cis-3-(3-((2-cyclopropyl-4-fluoro-1,1-dioxido-2,3-dihydrobenzo[d]isothiazol-5-yl)amino)-1H-pyrazol-5-yl)cyclopentyl(3-methyltetrahydrofuran-3-yl)carbamate], the concentration for half-maximal inhibition (IC50) at CDK2/Cyclin E1 was 0.0026 µM; against CDK1/Cyclin B1, 0.221 µM.

With `O=C(NC1(CO)CC1)O[C@H]1CC[C@@H](c2cc(Nc3ccc4c(c3F)CN(C3CC3)S4(=O)=O)n[nH]2)C1` (relative stereo) [Example 360, cis-3-(3-((2-cyclopropyl-4-fluoro-1,1-dioxido-2,3-dihydrobenzo[d]isothiazol-5-yl)amino)-1H-pyrazol-5-yl)cyclopentyl(1-(hydroxymethyl)cyclopropyl)carbamate], the IC50 is 0.012 µM at CDK2/Cyclin E1 and 0.358 µM against CDK1/Cyclin B1.

Take `COCC(C)NC(=O)O[C@H]1CC[C@@H](c2cc(Nc3ccc4c(c3F)CN(C3CC3)S4(=O)=O)n[nH]2)C1` (relative stereo) [Example 361, cis-3-(3-((2-cyclopropyl-4-fluoro-1,1-dioxido-2,3-dihydrobenzo[d]isothiazol-5-yl)amino)-1H-pyrazol-5-yl)cyclopentyl(1-methoxypropan-2-yl)carbamate]: the IC50 against CDK2/Cyclin E1 was determined as 0.0084 µM; against CDK1/Cyclin B1, 0.349 µM.

Regarding `CC1(NC(=O)O[C@H]2CC[C@@H](c3cc(Nc4ccc5c(c4F)CS(=O)(=O)N5C4CC4)n[nH]3)C2)COC1` (relative stereo) [Example 362, cis-3-(3-((1-cyclopropyl-4-fluoro-2,2-dioxido-1,3-dihydrobenzo[c]isothiazol-5-yl)amino)-1H-pyrazol-5-yl)cyclopentyl(3-methyloxetan-3-yl)carbamate], the IC50 against CDK2/Cyclin E1 came to 0.0038 µM; against CDK1/Cyclin B1, 0.133 µM.

On to `COCC(C)(C)NC(=O)O[C@H]1CC[C@@H](c2cc(Nc3ccc4c(c3F)CNS4(=O)=O)n[nH]2)C1` (relative stereo) [Example 364, cis-3-(3-((4-fluoro-1,1-dioxido-2,3-dihydrobenzo[d]isothiazol-5-yl)amino)-1H-pyrazol-5-yl)cyclopentyl(1-methoxy-2-methylpropan-2-yl)carbamate], for which the concentration for half-maximal inhibition (IC50) on CDK2/Cyclin E1 came to 0.0016 µM; against CDK1/Cyclin B1, 0.102 µM.

With `CC(C)NC(=O)O[C@H]1CC[C@@H](c2cc(Nc3cc(CO)c4c(c3F)CNS4(=O)=O)n[nH]2)C1` (relative stereo) [Example 365, cis-3-(3-((4-fluoro-7-(hydroxymethyl)-1,1-dioxido-2,3-dihydrobenzo[d]isothiazol-5-yl)amino)-1H-pyrazol-5-yl)cyclopentyl isopropylcarbamat], the concentration for half-maximal inhibition (IC50) at CDK2/Cyclin E1 and at CDK1/Cyclin B1 was more than 10 µM each time.

As for `CCCNC(=O)O[C@H]1CC[C@@H](c2cc(Nc3cc(CO)c4c(c3F)CNS4(=O)=O)n[nH]2)C1` (relative stereo) [Example 366, cis-3-(3-((4-fluoro-7-(hydroxymethyl)-1,1-dioxido-2,3-dihydrobenzo[d]isothiazol-5-yl)amino)-1H-pyrazol-5-yl)cyclopentyl propylcarbamate], the IC50 on CDK2/Cyclin E1 and on CDK1/Cyclin B1 was more than 10 µM each time.

With `COCC(C)NC(=O)O[C@H]1CC[C@@H](c2cc(Nc3ccc4c(c3F)CS(=O)(=O)N4C3CC3)n[nH]2)C1` (relative stereo) [Example 367, cis-3-(3-((1-cyclopropyl-4-fluoro-2,2-dioxido-1,3-dihydrobenzo[c]isothiazol-5-yl)amino)-1H-pyrazol-5-yl)cyclopentyl(1-methoxypropan-2-yl)carbamate], the concentration for half-maximal inhibition (IC50) came out at 0.0017 µM against CDK2/Cyclin E1 and 0.117 µM against CDK1/Cyclin B1.

As to `CC1(NC(=O)O[C@H]2CC[C@@H](c3cc(Nc4ccc5c(c4F)CS(=O)(=O)N5C4CC4)n[nH]3)C2)CCOC1` (relative stereo) [Example 368, cis-3-(3-((1-cyclopropyl-4-fluoro-2,2-dioxido-1,3-dihydrobenzo[c]isothiazol-5-yl)amino)-1H-pyrazol-5-yl)cyclopentyl(3-methyltetrahydrofuran-3-yl)carbamate], the values for the half-inhibitory concentration (IC50) against CDK2/Cyclin E1 and against CDK1/Cyclin B1 were 0.0012 µM and 0.095 µM, respectively.

For `COCC(C)(C)NC(=O)O[C@H]1CC[C@@H](c2cc(Nc3ccc4c(c3)CS(=O)(=O)N4C)n[nH]2)C1` (relative stereo) [Example 369, cis-3-(3-((1-methyl-2,2-dioxido-1,3-dihydrobenzo[c]isothiazol-5-yl)amino)-1H-pyrazol-5-yl)cyclopentyl(1-methoxy-2-methylpropan-2-yl)carbamate], the 50% inhibitory concentration (IC50) against CDK2/Cyclin E1 was 0.0007 µM; on CDK1/Cyclin B1, 0.013 µM.

Take `COCC(C)(C)NC(=O)O[C@H]1CC[C@@H](c2cc(Nc3ccc4c(c3)CS(=O)(=O)N4)n[nH]2)C1` (relative stereo) [Example 370, cis-3-(3-((2,2-dioxido-1,3-dihydrobenzo[c]isothiazol-5-yl)amino)-1H-pyrazol-5-yl)cyclopentyl(1-methoxy-2-methylpropan-2-yl)carbamate]: the IC50 on CDK2/Cyclin E1 is 0.0011 µM; at CDK1/Cyclin B1 it was 0.0097 µM.

Regarding `COCC(C)(C)NC(=O)O[C@H]1CC[C@@H](c2cc(Nc3ccc4c(c3F)CN(C3CC3)S4(=O)=O)n[nH]2)C1` (relative stereo) [Example 371, cis-3-(3-((2-cyclopropyl-4-fluoro-1,1-dioxido-2,3-dihydrobenzo[d]isothiazol-5-yl)amino)-1H-pyrazol-5-yl)cyclopentyl(1-methoxy-2-methylpropan-2-yl)carbamate], the IC50 was found to be 0.0035 µM against CDK2/Cyclin E1 and 0.265 µM at CDK1/Cyclin B1.

`CC1(NC(=O)O[C@H]2CC[C@@H](c3cc(Nc4ccc5c(c4F)CN(C4CC4)S5(=O)=O)n[nH]3)C2)COC1` (relative stereo) [Example 372, cis-3-(3-((2-cyclopropyl-4-fluoro-1,1-dioxido-2,3-dihydrobenzo[d]isothiazol-5-yl)amino)-1H-pyrazol-5-yl)cyclopentyl(3-methyloxetan-3-yl)carbamate]: the IC50 at CDK2/Cyclin E1 was determined as 0.0068 µM; on CDK1/Cyclin B1, 0.395 µM.

Take `O=C(O[C@H]1CC[C@@H](c2cc(Nc3ccc4c(c3F)CNS4(=O)=O)n[nH]2)C1)N1CCOCC1` (relative stereo) [Example 373, cis-3-(3-((4-fluoro-1,1-dioxido-2,3-dihydrobenzo[d]isothiazol-5-yl)amino)-1H-pyrazol-5-yl)cyclopentyl morpholine-4-carboxylate]: the values for the IC50 on CDK2/Cyclin E1 and against CDK1/Cyclin B1 were 0.045 µM and 1.38 µM, respectively.

With `CC1(NC(=O)O[C@H]2CC[C@@H](c3cc(Nc4ccc5c(c4F)CS(=O)(=O)N5)n[nH]3)C2)COC1` (relative stereo) [Example 374, cis-3-(3-((4-fluoro-2,2-dioxido-1,3-dihydrobenzo[c]isothiazol-5-yl)amino)-1H-pyrazol-5-yl)cyclopentyl(3-methyloxetan-3-yl)carbamate], the IC50 against CDK2/Cyclin E1 was 0.0057 µM; at CDK1/Cyclin B1, 0.118 µM.

With `CC1(NC(=O)O[C@H]2CC[C@@H](c3cc(Nc4ccc5c(c4F)CS(=O)(=O)N5)n[nH]3)C2)CCOC1` (relative stereo) [Example 375, cis-3-(3-((4-fluoro-2,2-dioxido-1,3-dihydrobenzo[c]isothiazol-5-yl)amino)-1H-pyrazol-5-yl)cyclopentyl(3-methyltetrahydrofuran-3-yl)carbamate], the half-maximal inhibitory concentration (IC50) on CDK2/Cyclin E1 was found to be 0.0046 µM; against CDK1/Cyclin B1, 0.095 µM.

On to `COCC(C)(C)NC(=O)O[C@H]1CC[C@@H](c2cc(Nc3ccc4c(c3F)CS(=O)(=O)N4)n[nH]2)C1` (relative stereo) [Example 376, cis-3-(3-((4-fluoro-2,2-dioxido-1,3-dihydrobenzo[c]isothiazol-5-yl)amino)-1H-pyrazol-5-yl)cyclopentyl(1-methoxy-2-methylpropan-2-yl)carbamate], for which the IC50 at CDK2/Cyclin E1 was 0.0021 µM; against CDK1/Cyclin B1, 0.031 µM.

Regarding `COCC(C)(C)NC(=O)O[C@H]1CC[C@@H](c2cc(Nc3ccc4c(c3F)CS(=O)(=O)N4C)n[nH]2)C1` (relative stereo) [Example 377, cis-3-(3-((4-fluoro-1-methyl-2,2-dioxido-1,3-dihydrobenzo[c]isothiazol-5-yl)amino)-1H-pyrazol-5-yl)cyclopentyl(1-methoxy-2-methylpropan-2-yl)carbamate], the IC50 at CDK2/Cyclin E1 was found to be 0.0011 µM; at CDK1/Cyclin B1, 0.045 µM.

Turning to `CC(C)NC(=O)O[C@H]1CO[C@@H](c2cc(Nc3ccc4c(c3F)CNS4(=O)=O)n[nH]2)C1` (relative stereo) [Example 378, 5-(3-((4-fluoro-1,1-dioxido-2,3-dihydrobenzo[d]isothiazol-5-yl)amino)-1H-pyrazol-5-yl)tetrahydrofuran-3-yl isopropylcarbamate], the IC50 came to 0.0093 µM on CDK2/Cyclin E1 and 0.496 µM against CDK1/Cyclin B1.

Consider `COCC(C)(C)NC(=O)O[C@H]1CC[C@@H](c2cc(Nc3ccc4c(c3F)CN(C)S4(=O)=O)n[nH]2)C1` (relative stereo) [Example 379, cis-3-(3-((4-fluoro-2-methyl-1,1-dioxido-2,3-dihydrobenzo[d]isothiazol-5-yl)amino)-1H-pyrazol-5-yl)cyclopentyl(1-methoxy-2-methylpropan-2-yl)carbamate], for which the half-inhibitory concentration (IC50) worked out at 0.0045 µM on CDK2/Cyclin E1 and 0.23 µM against CDK1/Cyclin B1.
